According to BindingDB's records for doi:10.1021/acs.jmedchem.9b00742 (Leiden University, 2019):
pIC50, pKi: −log10 of the molar value.

Tests used:
[1] = target: T1, C-C chemokine receptor type 2 (Homo sapiens, UniProt P41597); test: Displacement of [3H]-CCR2-RA-[R] from human CCR2 expressed in human U2OS cells incubated for 2 hrs by scintillation spectrometric method
[2] = target: T1, C-C chemokine receptor type 2; test: Antagonist activity at CCR2b in human THP1 cells assessed as inhibition of human MCP1 induced calcium flux by fluo-4 dye based fluorescence assay
[3] = target: T1, C-C chemokine receptor type 2; test: Non-competitive insurmountable antagonist activity at human CCR2 expressed in human U2OS cell membranes assessed as pEC50 for CCL2-stimulated [35S]GTPgammaS binding at 30 nM preincubated for 30 mins followed by [35S]GTPgammaS addition and measured after 90 mins (Rvb = 8.10 +/- 0.06 No_unit)
[4] = target: T2, C-C chemokine receptor type 5 (Homo sapiens, UniProt P51681); test: Non-competitive insurmountable antagonist activity at human CCR5 expressed in human U2OS cell membranes assessed as EC50 for CCL3-stimulated [35S]GTPgammaS binding at 100 nM preincubated for 30 mins followed by [35S]GTPgammaS addition and measured after 90 mins (Rvb = 4 nM)
[5] = target: T2, C-C chemokine receptor type 5; test: Non-competitive insurmountable antagonist activity at human CCR5 expressed in human U2OS cell membranes assessed as pEC50 for CCL3-stimulated [35S]GTPgammaS binding at 100 nM preincubated for 30 mins followed by [35S]GTPgammaS addition and measured after 90 mins (Rvb = 8.42 +/- 0.06 No_unit)
[6] = target: T1, C-C chemokine receptor type 2; test: Non-competitive insurmountable antagonist activity at human CCR2 expressed in human U2OS cell membranes assessed as EC50 for CCL2-stimulated [35S]GTPgammaS binding at 10 nM preincubated for 30 mins followed by [35S]GTPgammaS addition and measured after 90 mins (Rvb = 8 nM)
[7] = target: T2, C-C chemokine receptor type 5; test: Non-competitive insurmountable antagonist activity at human CCR5 expressed in human U2OS cell membranes assessed as EC50 for CCL3-stimulated [35S]GTPgammaS binding at 1000 nM preincubated for 30 mins followed by [35S]GTPgammaS addition and measured after 90 mins (Rvb = 4 nM)
[8] = target: T1, C-C chemokine receptor type 2; test: Non-competitive insurmountable antagonist activity at human CCR2 expressed in human U2OS cell membranes assessed as pEC50 for CCL2-stimulated [35S]GTPgammaS binding at 10 nM preincubated for 30 mins followed by [35S]GTPgammaS addition and measured after 90 mins (Rvb = 8.10 +/- 0.06 No_unit)
[9] = target: T1, C-C chemokine receptor type 2; test: Non-competitive insurmountable antagonist activity at human CCR2 expressed in human U2OS cell membranes assessed as pEC50 for CCL2-stimulated [35S]GTPgammaS binding at 100 nM preincubated for 30 mins followed by [35S]GTPgammaS addition and measured after 90 mins (Rvb = 8.10 +/- 0.06 No_unit)
[10] = target: T2, C-C chemokine receptor type 5; test: Non-competitive insurmountable antagonist activity at human CCR5 expressed in human U2OS cell membranes assessed as pEC50 for CCL3-stimulated [35S]GTPgammaS binding at 300 nM preincubated for 30 mins followed by [35S]GTPgammaS addition and measured after 90 mins (Rvb = 8.42 +/- 0.06 No_unit)
[11] = target: T2, C-C chemokine receptor type 5; test: Non-competitive insurmountable antagonist activity at human CCR5 expressed in human U2OS cell membranes assessed as EC50 for CCL3-stimulated [35S]GTPgammaS binding at 300 nM preincubated for 30 mins followed by [35S]GTPgammaS addition and measured after 90 mins (Rvb = 4 nM)
[12] = target: T1, C-C chemokine receptor type 2; test: Non-competitive insurmountable antagonist activity at human CCR2 expressed in human U2OS cell membranes assessed as pEC50 for CCL2-stimulated [35S]GTPgammaS binding at 3 nM preincubated for 30 mins followed by [35S]GTPgammaS addition and measured after 90 mins (Rvb = 8.10 +/- 0.06 No_unit)
[13] = target: T1, C-C chemokine receptor type 2; test: Non-competitive insurmountable antagonist activity at human CCR2 expressed in human U2OS cell membranes assessed as EC50 for CCL2-stimulated [35S]GTPgammaS binding at 1 nM preincubated for 30 mins followed by [35S]GTPgammaS addition and measured after 90 mins (Rvb = 8 nM)
[14] = target: T1, C-C chemokine receptor type 2; test: Non-competitive insurmountable antagonist activity at human CCR2 expressed in human U2OS cell membranes assessed as EC50 for CCL2-stimulated [35S]GTPgammaS binding at 3 nM preincubated for 30 mins followed by [35S]GTPgammaS addition and measured after 90 mins (Rvb = 8 nM)
[15] = target: T1, C-C chemokine receptor type 2; test: Non-competitive insurmountable antagonist activity at human CCR2 expressed in human U2OS cell membranes assessed as pEC50 for CCL2-stimulated [35S]GTPgammaS binding at 1 nM preincubated for 30 mins followed by [35S]GTPgammaS addition and measured after 90 mins (Rvb = 8.10 +/- 0.06 No_unit)
[16] = target: T2, C-C chemokine receptor type 5; test: Non-competitive insurmountable antagonist activity at human CCR5 expressed in human U2OS cell membranes assessed as pEC50 for CCL3-stimulated [35S]GTPgammaS binding at 30 nM preincubated for 30 mins followed by [35S]GTPgammaS addition and measured after 90 mins (Rvb = 8.42 +/- 0.06 No_unit)

T2 sequence (P51681 whole entry): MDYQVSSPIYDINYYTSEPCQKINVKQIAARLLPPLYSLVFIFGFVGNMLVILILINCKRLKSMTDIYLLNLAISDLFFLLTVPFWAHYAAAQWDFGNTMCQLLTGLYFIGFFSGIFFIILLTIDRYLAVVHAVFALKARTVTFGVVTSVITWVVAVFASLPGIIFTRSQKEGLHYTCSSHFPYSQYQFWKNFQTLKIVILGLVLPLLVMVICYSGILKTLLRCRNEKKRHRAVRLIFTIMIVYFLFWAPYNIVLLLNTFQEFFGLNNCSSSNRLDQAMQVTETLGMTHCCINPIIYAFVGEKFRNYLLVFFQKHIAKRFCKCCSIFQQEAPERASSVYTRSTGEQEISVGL
T1 sequence (P41597 whole entry): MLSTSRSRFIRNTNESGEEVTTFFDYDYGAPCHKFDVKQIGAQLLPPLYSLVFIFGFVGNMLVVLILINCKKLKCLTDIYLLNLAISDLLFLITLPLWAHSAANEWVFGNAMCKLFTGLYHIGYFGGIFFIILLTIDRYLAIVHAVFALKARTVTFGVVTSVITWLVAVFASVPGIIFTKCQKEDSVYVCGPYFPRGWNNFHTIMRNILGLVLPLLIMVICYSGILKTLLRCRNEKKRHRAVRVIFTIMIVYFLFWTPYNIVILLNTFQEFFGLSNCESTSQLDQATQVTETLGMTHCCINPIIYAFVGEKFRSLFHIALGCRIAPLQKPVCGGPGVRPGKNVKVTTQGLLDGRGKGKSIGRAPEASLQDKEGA

Nc1nc2[nH]c(C3CC3)c(Cc3cccc(F)c3)c(=O)n2n1 gave a pKi [1] of 8.53.
Compound Nc1nc2[nH]c(C3CC3)c(Cc3ccc(Cl)c(Cl)c3)c(=O)n2n1 has a pKi [1] of 9.35.
In the case of Nc1nc2[nH]c(-c3ccccc3)c(Cc3cccc(Cl)c3)c(=O)n2n1, the pKi [1] was 7.64.
O=c1c(Cc2cccc(Cl)c2)c(C2CC2)[nH]c2ncnn12 was tested, and the pIC50 [2] was 7.80.
CC(C)c1[nH]c2nc(N)nn2c(=O)c1Cc1cccc(Cl)c1Cl was tested, and the “EC50” value [3] was 25 nM, the “EC50” value [4] was 5.0 nM and the “EC50” value [5] was 4.5 nM. The “EC50” value [6] was 13 nM, the “EC50” value [7] was 9.0 nM and the “EC50” value [8] was 13 nM. For the same compound, the “EC50” value [9] was 54 nM, the “EC50” value [10] was 7.2 nM and the “EC50” value [11] was 8.0 nM.
With CC(C)c1[nH]c2nc(N)nn2c(=O)c1Cc1ccc(Cl)c(Br)c1 the “EC50” value [4] was 6.0 nM, the “EC50” value [5] was 6.2 nM and the “EC50” value [6] was 148 nM. For the same compound, the “EC50” value [8] was 135 nM, the “EC50” value [12] was 30 nM and the “EC50” value [13] was 13 nM. The “EC50” value [14] was 32 nM, the “EC50” value [15] was 12 nM and the “EC50” value [16] was 5.0 nM. The “EC50” value [10] was 8.9 nM and the “EC50” value [11] was 9.0 nM.
